Reference: patent publication US11938189B2, “Compositions and methods for stabilizing protein-containing formulations” (Genentech, Inc., priority 2010, dated 2024)

Key:
[1] = system: anti-IgE monoclonal antibody; assay: Shaking at 300 rpm, turbidity of antibody formulation; format: physicochemical; details: 0.23 mM (0.02% w/v) polysorbate 20 or 3.6 mM (0.1% w/v) n-octyl-β-D-glucopyranoside; shaking 300 rpm, 72 hours, 37° C.; FIG. 7
Procedure: (§1) In this set of studies, a buffered solution (20 mM sodium phosphate buffer, pH 7.4) of monoclonal antibody was subjected to shaking on an orbital shaker at 150 rpm, at a controlled temperature of 37° C. These studies were carried out using a 3 ml solution fill of the antibody solution in a 6 cc glass vial. Samples were withdrawn at regular intervals and analyzed for percent monomer using size-exclusion chromatography. Various surfactants of the class of alkylglycosides were evaluated for their effectiveness to prevent protein aggregation during shaking. The surfactants were used at concentrations below their respective critical micelle concentration (CMC) or above their respective CMC.
(§2) In FIGS. 6-9, the effect of 0.23 mM (0.02% w/v) polysorbate 20 or 3.6 mM (0.1% w/v) n-octyl-β-D-glucopyranoside on the turbidity of aqueous formulations of an anti-MUC16 monoclonal antibody (FIG. 6), an anti-IgE monoclonal antibody (FIG. 7), an anti-CD11a monoclonal antibody (FIG. 8), and an anti-CD22 monoclonal antibody (FIG. 9), during shaking at 300 rpm for 72 hours at 37° C. was investigated.

[2] = system: anti-CD22 monoclonal antibody; assay: as above; format: physicochemical; details: 0.23 mM (0.02% w/v) polysorbate 20 or 3.6 mM (0.1% w/v) n-octyl-β-D-glucopyranoside; shaking 300 rpm, 72 hours, 37° C.; FIG. 9
Procedure: as §1, §2

[3] = system: anti-CD11a monoclonal antibody; assay: as above; format: physicochemical; details: 0.23 mM (0.02% w/v) polysorbate 20 or 3.6 mM (0.1% w/v) n-octyl-β-D-glucopyranoside; shaking 300 rpm, 72 hours, 37° C.; FIG. 8
Procedure: as §1, §2

[4] = in water at 20-25° C.; cited from earlier work
[5] = system: anti-IgE monoclonal antibody; assay: Shaking at 300 rpm, percent monomer of antibody; format: physicochemical; details: 3.6 mM (0.1% w/v); shaking 300 rpm, 72 hours, 37° C.; FIG. 11
Procedure: as §1
as §2, with “10-13,” for “6-9,”, “percent monomer” for “turbidity”, “10),” for “6),”, “11),” for “7),”, “12),” for “8),”, “13),” for “9),”

[6] = system: anti-CD22 monoclonal antibody; assay: Shaking at 300 rpm, percent monomer of antibody; format: physicochemical; details: 3.6 mM (0.1% w/v); shaking 300 rpm, 72 hours, 37° C.; FIG. 13
Procedure: as §1
as §2, with “10-13,” for “6-9,”, “percent monomer” for “turbidity”, “10),” for “6),”, “11),” for “7),”, “12),” for “8),”, “13),” for “9),”

[7] = system: anti-CD11a monoclonal antibody; assay: Shaking at 300 rpm, percent monomer of antibody; format: physicochemical; details: 3.6 mM (0.1% w/v); shaking 300 rpm, 72 hours, 37° C.; FIG. 12
Procedure: as §1
as §2, with “10-13,” for “6-9,”, “percent monomer” for “turbidity”, “10),” for “6),”, “11),” for “7),”, “12),” for “8),”, “13),” for “9),”

[8] = system: anti-MUC16 monoclonal antibody; assay: Shaking at 300 rpm, percent monomer of antibody; format: physicochemical; details: shaking 300 rpm, 72 hours, 37° C.
Procedure: as §1
In FIG. 5, the effect of varying the concentration of n-octyl-β-D-glucopyranoside on the percent monomer of the anti-MUC16 monoclonal antibody in solution, following shaking at 300 rpm at 37° C. for 72 hours was investigated.
as §2, with “10-13,” for “6-9,”, “percent monomer” for “turbidity”, “10),” for “6),”, “11),” for “7),”, “12),” for “8),”, “13),” for “9),”

[9] = system: anti-MUC16 monoclonal antibody; assay: Stirring-induced aggregation (500 rpm), turbidity; format: physicochemical; details: surfactant at one-tenth of its CMC; stirring 500 rpm, ambient temperature, 90 minutes; FIG. 2
Procedure: In this set of studies, a Tefloncoated magnetic stir bar was used to induce agitation in a buffered solution (20 mM histidine-acetate, pH 5.5) of monoclonal antibody. 3 ml of the antibody solution was filled in a 6 cc glass vial and the solution was stirred at 500 rpm using a Teflon-coated stir bar. The solution was stirred for a period of 90 minutes and samples were withdrawn at regular intervals and analyzed for turbidity as an indication of formation of insoluble aggregates. Various surfactants of the class of alkylglycosides were evaluated for their effectiveness to prevent protein aggregation during shaking. The surfactants were used at concentrations below their respective critical micelle concentration (CMC) or above their respective CMC.
FIGS. 2 and 3 show the time-course of turbidity formation in a solution of the anti-MUC16 monoclonal antibody following stirring at 500 rpm using a Teflon-coated magnetic bar at ambient temperature for a period of 90 minutes. Turbidity was evaluated in solutions containing no surfactant as well as in solutions containing different alkylglycoside surfactants or polysorbate 20. […]

[10] = system: anti-CD22 monoclonal antibody; assay: Fenton reagent-induced oxidation of Met and Trp residues (phenyl RP-HPLC); format: physicochemical; details: 3.6 mM (0.1% w/v); 0.1 ppm Fe3+ and 1 ppm hydrogen peroxide, 2 or 4 weeks at 40° C., pH 5.5; compared with 0.23 mM polysorbate 20 and no surfactant; FIG. 16
Procedure: In a third experiment, Fenton reagent-induced oxidation of Met and Trp amino acid residues (i.e., amino acids known to be susceptible to oxidation) in an anti-CD22 monoclonal antibody was analyzed. Specifically, buffered (20 mM histidine acetate, pH 5.5) solutions of anti-CD22 monoclonal antibody containing 0.1 ppm Fe^3+ and 1 ppm hydrogen peroxide were prepared and stored for either 2 or 4 weeks at 40° C., either in the absence of surfactant or in the presence of 0.23 mM (0.02% w/v) polysorbate 20 or 3.6 mM (0.1% w/v) n-octyl-β-D-glucopyranoside. samples were then withdrawn and percent oxidation of Met and Trp residues was determined from the percent early peaks of the antibody eluting through a phenyl RP-HPLC column.

[11] = system: anti-MUC16 monoclonal antibody; assay: Shaking-induced aggregation (150 rpm), percent monomer by size-exclusion chromatography; format: physicochemical; details: surfactant at one half of its CMC; shaking 150 rpm, 37° C., 64 hours; FIG. 1
Procedure: as §1
The surfactants were employed at one half the concentration of their respective CMC values, i.e., 1.1 mM (0.035% w/v) n-decyl-β-D-glucopyranoside, 9 mM (0.24%) n-octyl-β-D-glucopyranoside and 0.04 mM (0.0035%) polysorbate 20.

[12] = system: anti-MUC16 monoclonal antibody; assay: Shaking at 300 rpm, turbidity of antibody formulation; format: physicochemical; details: shaking 300 rpm, 72 hours, 37° C.
Procedure: as §1
In FIG. 4, the effect of varying the concentration of n-octyl-β-D-glucopyranoside on the turbidity of anti-MUC16 monoclonal antibody formulations during shaking at 300 rpm for 72 hours at 37° C. was investigated.
as §2

[13] = system: anti-CD11a monoclonal antibody; assay: Oxidation of Met256 on storage in surfactant-containing antibody solution; format: physicochemical; details: 0.1% w/v surfactant, FIG. 15
Procedure: In a second experiment, oxidation of the Met256 amino acid residue in an anti-CD11a monoclonal antibody in solutions containing either n-decyl-β-D-glucopyranoside, n-octyl-β-D-glucopyranoside, or polysorbate 20 was evaluated. For this purpose, 3 ml of the buffered antibody solution (pH 6.0) containing 0.1% w/v of the surfactant was stored in 6 cc vials at either 5° C. or 40° C. for a period of either 2 or 4 weeks.

[14] = Hydrogen peroxide formation in stored surfactant solutions (Amplex Red Hydrogen Peroxide assay); format: physicochemical; details: 0.1% w/v surfactant in water, stored at 40° C. for one month; FIG. 14
Procedure: In a first experiment, solutions of surfactants of the class of alkylglycosides, i.e., n-decyl-β-D-glucopyranoside, n-octyl-β-D-glucopyranoside, and n-decyl-β-D-maltopyranoside, as well as polysorbate 20 at a concentration of 0.1% w/v in water were stored at 40° C. for a period of one month. Samples were then withdrawn and analyzed for the presence of hydrogen peroxide using the Amplex Red Hydrogen Peroxide assay. the results of these analyses are shown in FIG. 14.

[15] = system: Humanized anti-oxidized LDL monoclonal antibody; assay: Light-induced oxidation of tryptophan residues (LC/MS/MS tryptic peptide map); format: physicochemical; details: Light 24 hrs; 0.02% surfactant
Procedure: MAb samples and light treatment: Humanized anti-oxidized LDL monoclonal antibody, was produced at Genentech, Inc. from a CHO cell line. Three independent samples were prepared for photostability studies: 1) control sample, vial wrapped with aluminum foil; 2) test sample, vial light exposed (unwrapped); 3) test sample, vial light exposed (unwrapped) containing the specified non-ionic surfactant. Both control & light exposed samples were kept in a light box for 24 hrs. Light exposure following ICH guideline with following setting for a Atlas SUNTEST CPS+Light Box: Irradiance level=250 watts/square meter; Time set for 24 hours; Total UV dose=538 watt-hours/square meter; Total visible dose=1,320,000 lux-hours.
LC/MS/MS of tryptic MAb peptide map: Samples were digested with trypsin after reduction and alkylation. The resulting peptides were analyzed with a Thermo LTQ-Orbitrap mass spectrometer coupled with an Agilent 1200 capillary HPLC system. HPLC column: Jupiter 5 um C18 250×1.0 mm, flow rate: 70 uL/min, column oven temperature: 55° C. Solvent A: 0.1% TFA in water, B: 0.09% TFA in 90% ACN. Orbitrap setting: MS resolution 60000, MS/MS collected in data dependent mode, using LTQ.
The effect of light, and the protective effect of non-ionic surfactants, on the oxidation of tryptophan residues on an anti-oxidized LDL antibody was determined.

[16] = 0.23 mM (0.02% w/v) polysorbate 20 or 3.6 mM (0.1% w/v) n-octyl-β-D-glucopyranoside, FIG. 6

CCCCCCCCO[C@@H]1O[C@H](CO)[C@@H](O)[C@H](O)[C@H]1O [n-octyl-β-D-glucopyranoside]
inhibition of visible antibody aggregates measured by turbidity formation [1]: effectively inhibited the formation of visible antibody aggregates
inhibition of visible antibody aggregates measured by turbidity formation [2]: effectively inhibited the formation of visible antibody aggregates
inhibition of visible antibody aggregates measured by turbidity formation [3]: effectively inhibited the formation of visible antibody aggregates
CMC Value [4]: 18 mM
CMC Value (w/v) [4]: 0.53% w/v
maintenance of percent monomer upon shaking vs unshaken sample [5]: effectively maintained the percent monomer
maintenance of percent monomer upon shaking vs unshaken sample [6]: effectively maintained the percent monomer
maintenance of percent monomer upon shaking vs unshaken sample [7]: effectively maintained the percent monomer
maintenance of percent monomer upon shaking vs unshaken sample ([8]; 3.6 mM (0.1% w/v), FIG. 10): effectively maintained the percent monomer
maintenance of percent monomer upon shaking vs unshaken sample ([8]; all concentrations tested (0.72-18 mM), FIG. 5): effectively maintained the percent monomer
prevention of turbidity development on stirring [9]: effective in preventing turbidity development
Fenton reagent-induced oxidation of susceptible amino acids (Trp, Met) [10]: inhibited
prevention of shaking-induced loss of percent monomer [11]: effective in preventing loss of monomer
inhibition of visible antibody aggregates measured by turbidity formation [12, 16]: effectively inhibited the formation of visible antibody aggregates
inhibition of visible antibody aggregates measured by turbidity formation ([12]; 0.72, 1.8, 3.6, 9 and 18 mM n-octyl-β-D-glucopyranoside, FIG. 4): effectively inhibited the formation of visible antibody aggregates
increase in percent oxidized Met256 vs initial sample ([13]; pH 6.0, stored at 5° C. or 40° C. for 2 or 4 weeks): no significant increase

polyoxyethylene sorbitan monolaurate [polysorbate 20, reference compound]
inhibition of visible antibody aggregates measured by turbidity formation [1]: effectively inhibited the formation of visible antibody aggregates
inhibition of visible antibody aggregates measured by turbidity formation [2]: effectively inhibited the formation of visible antibody aggregates
inhibition of visible antibody aggregates measured by turbidity formation [3]: effectively inhibited the formation of visible antibody aggregates
hydrogen peroxide formed in surfactant solution [14]: about 10 μM
prevention of turbidity development on stirring [9]: effective in preventing turbidity development
% Oxidized Trp33 [15]: 0.6%
% Oxidized Trp92 [15]: 8.9%
prevention of shaking-induced loss of percent monomer [11]: not effective in preventing shaking-induced loss of monomer
inhibition of visible antibody aggregates measured by turbidity formation [12, 16]: effectively inhibited the formation of visible antibody aggregates
percent of Met256 residues oxidized ([13]; pH 6.0, storage at 40° C. for 4 weeks): approximately 16%
percent of Met256 residues oxidized ([13]; pH 6.0, time zero): approximately 2%
